Measured values published in ChEMBL document CHEMBL1201862, “PubChem BioAssay data set” (2004).
The source made the active and inactive calls. Cut-off read from the data, not from the text of the source: active = IC50 of 20 µM or less and inactive = more.

Target: T1, Hexokinase HKDC1 (Homo sapiens, UniProt Q2TB90)
T1 sequence (Q2TB90 whole entry): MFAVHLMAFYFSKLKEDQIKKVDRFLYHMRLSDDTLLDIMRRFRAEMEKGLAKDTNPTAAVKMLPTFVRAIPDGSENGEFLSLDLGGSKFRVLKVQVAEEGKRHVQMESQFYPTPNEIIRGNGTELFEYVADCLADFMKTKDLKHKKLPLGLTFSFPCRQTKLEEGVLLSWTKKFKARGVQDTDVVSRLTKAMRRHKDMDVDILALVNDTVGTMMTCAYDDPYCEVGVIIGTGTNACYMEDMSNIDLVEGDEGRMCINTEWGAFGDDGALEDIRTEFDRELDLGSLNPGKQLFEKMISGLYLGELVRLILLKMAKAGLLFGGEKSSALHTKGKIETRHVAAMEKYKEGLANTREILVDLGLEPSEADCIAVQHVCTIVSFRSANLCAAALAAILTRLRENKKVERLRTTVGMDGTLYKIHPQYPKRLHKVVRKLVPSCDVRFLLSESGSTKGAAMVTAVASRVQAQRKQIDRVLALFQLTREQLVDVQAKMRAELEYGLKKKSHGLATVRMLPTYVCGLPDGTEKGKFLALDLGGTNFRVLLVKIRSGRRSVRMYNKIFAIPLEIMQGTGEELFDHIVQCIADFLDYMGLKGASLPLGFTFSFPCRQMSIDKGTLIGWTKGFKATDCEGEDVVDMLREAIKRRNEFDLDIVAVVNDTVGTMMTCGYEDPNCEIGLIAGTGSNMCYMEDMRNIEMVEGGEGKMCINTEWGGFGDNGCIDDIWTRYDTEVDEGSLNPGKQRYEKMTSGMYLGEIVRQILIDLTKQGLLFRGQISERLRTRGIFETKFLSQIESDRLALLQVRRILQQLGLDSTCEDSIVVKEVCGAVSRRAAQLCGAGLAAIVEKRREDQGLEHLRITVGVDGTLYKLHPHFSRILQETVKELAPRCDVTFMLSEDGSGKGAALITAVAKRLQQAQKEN
Assay: inhibition of HKDC1 glucose phosphorylation – biochemical, W721R variant, dose response (AID 504729)
Format: functional

Compound: O=C1C=C(c2c(O)ccc3ccccc23)c2ccccc2C1=O
- IC50: 2470 nM (active)
